# Experimental data taken from patent publication US11739098B2 (BRISTOL-MYERS SQUIBB COMPANY, priority 2017, dated 2023).
# Assays:
# Format in all cases: cell-based
# [1] = molecular target: T1, human TLR9 (Homo sapiens, UniProt Q9NR96); assay: TLR9 inhibition reporter assay (HEK-Blue cells, SEAP reporter, ODN2006 stimulation); settings: HEK-Blue cells overexpressing human TLR9, SEAP reporter, ODN2006 5 nM
# T1 construct: host or cells: HEK-Blue cells (HEK293-derived reporter line)
# T1 sequence (Q9NR96 26-1032): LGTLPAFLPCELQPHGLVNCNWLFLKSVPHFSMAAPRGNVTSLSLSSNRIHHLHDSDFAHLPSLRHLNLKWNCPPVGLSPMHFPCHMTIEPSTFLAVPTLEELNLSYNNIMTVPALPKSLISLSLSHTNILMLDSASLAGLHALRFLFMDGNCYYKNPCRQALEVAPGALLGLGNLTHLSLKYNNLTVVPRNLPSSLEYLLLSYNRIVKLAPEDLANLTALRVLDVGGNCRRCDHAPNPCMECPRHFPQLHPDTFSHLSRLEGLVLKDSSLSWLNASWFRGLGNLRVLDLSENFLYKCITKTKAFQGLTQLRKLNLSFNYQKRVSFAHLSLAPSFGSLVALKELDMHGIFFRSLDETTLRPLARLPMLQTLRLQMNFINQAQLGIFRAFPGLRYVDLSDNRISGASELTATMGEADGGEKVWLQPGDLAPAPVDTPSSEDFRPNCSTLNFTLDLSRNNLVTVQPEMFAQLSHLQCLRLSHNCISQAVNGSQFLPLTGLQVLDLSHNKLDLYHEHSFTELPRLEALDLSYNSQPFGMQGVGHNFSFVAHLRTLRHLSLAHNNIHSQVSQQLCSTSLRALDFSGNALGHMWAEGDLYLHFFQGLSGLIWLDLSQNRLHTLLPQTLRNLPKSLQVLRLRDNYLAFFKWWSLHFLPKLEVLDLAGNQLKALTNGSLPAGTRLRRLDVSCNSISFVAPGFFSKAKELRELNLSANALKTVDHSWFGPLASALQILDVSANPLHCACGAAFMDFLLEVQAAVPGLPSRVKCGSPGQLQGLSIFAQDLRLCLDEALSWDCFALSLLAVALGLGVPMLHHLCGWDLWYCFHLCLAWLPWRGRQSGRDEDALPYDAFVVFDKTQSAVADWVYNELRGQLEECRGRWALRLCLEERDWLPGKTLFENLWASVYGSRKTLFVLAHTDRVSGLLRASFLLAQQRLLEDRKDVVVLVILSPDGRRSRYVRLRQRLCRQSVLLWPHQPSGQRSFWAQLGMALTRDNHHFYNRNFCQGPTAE
# Procedure, shortened: (§1)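 HEK-Blue cells overexpressing human TLR7, TLR8 or TLR9 (NF-κB/AP-1-driven SEAP) pre-treated 30 min at room temperature with compound (0.05 nM–50 μM), then stimulated with gardiquimod 7.5 μM (TLR7), R848 15.9 μM (TLR8) or ODN2006 5 nM (TLR9). SEAP read colorimetrically after 22 h at 37 °C; % inhibition calculated.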
# [2] = molecular target: T2, human TLR8 (Homo sapiens, UniProt Q9NR97); assay: TLR8 inhibition reporter assay (HEK-Blue cells, SEAP reporter, R848 stimulation); settings: HEK-Blue cells overexpressing human TLR8, SEAP reporter, R848 15.9 μM
# T2 construct: host or cells: HEK-Blue cells (HEK293-derived reporter line)
# T2 sequence (Q9NR97 27-1041): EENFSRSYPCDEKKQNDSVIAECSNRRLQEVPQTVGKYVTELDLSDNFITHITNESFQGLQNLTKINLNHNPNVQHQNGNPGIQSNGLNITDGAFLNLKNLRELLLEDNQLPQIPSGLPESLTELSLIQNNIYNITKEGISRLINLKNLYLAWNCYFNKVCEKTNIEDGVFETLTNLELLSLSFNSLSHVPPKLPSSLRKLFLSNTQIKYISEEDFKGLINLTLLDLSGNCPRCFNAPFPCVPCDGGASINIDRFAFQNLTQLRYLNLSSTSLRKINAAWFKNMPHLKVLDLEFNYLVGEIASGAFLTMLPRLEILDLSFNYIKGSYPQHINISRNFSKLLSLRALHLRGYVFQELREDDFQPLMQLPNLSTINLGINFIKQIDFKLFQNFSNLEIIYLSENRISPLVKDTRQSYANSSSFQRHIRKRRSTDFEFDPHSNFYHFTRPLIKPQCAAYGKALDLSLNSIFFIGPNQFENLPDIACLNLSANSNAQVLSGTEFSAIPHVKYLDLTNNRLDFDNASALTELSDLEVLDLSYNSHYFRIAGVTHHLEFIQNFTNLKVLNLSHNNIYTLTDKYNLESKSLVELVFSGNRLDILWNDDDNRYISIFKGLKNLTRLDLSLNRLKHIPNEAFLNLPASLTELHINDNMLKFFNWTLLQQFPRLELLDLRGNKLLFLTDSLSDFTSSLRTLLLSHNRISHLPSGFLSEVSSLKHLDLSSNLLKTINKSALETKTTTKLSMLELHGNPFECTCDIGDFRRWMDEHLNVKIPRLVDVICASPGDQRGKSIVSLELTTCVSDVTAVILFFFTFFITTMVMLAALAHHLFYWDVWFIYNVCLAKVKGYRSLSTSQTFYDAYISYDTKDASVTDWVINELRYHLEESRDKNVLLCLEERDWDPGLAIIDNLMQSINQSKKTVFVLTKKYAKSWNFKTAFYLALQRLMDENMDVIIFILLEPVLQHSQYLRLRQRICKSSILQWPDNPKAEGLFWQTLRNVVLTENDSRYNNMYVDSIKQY
# Procedure, shortened: as §1
# [3] = molecular target: T3, human TLR7 (Homo sapiens, UniProt Q9NYK1); assay: TLR7 inhibition reporter assay (HEK-Blue cells, SEAP reporter, gardiquimod stimulation); settings: HEK-Blue cells overexpressing human TLR7, SEAP reporter, gardiquimod 7.5 μM
# T3 construct: host or cells: HEK-Blue cells (HEK293-derived reporter line)
# T3 sequence (Q9NYK1 27-1049): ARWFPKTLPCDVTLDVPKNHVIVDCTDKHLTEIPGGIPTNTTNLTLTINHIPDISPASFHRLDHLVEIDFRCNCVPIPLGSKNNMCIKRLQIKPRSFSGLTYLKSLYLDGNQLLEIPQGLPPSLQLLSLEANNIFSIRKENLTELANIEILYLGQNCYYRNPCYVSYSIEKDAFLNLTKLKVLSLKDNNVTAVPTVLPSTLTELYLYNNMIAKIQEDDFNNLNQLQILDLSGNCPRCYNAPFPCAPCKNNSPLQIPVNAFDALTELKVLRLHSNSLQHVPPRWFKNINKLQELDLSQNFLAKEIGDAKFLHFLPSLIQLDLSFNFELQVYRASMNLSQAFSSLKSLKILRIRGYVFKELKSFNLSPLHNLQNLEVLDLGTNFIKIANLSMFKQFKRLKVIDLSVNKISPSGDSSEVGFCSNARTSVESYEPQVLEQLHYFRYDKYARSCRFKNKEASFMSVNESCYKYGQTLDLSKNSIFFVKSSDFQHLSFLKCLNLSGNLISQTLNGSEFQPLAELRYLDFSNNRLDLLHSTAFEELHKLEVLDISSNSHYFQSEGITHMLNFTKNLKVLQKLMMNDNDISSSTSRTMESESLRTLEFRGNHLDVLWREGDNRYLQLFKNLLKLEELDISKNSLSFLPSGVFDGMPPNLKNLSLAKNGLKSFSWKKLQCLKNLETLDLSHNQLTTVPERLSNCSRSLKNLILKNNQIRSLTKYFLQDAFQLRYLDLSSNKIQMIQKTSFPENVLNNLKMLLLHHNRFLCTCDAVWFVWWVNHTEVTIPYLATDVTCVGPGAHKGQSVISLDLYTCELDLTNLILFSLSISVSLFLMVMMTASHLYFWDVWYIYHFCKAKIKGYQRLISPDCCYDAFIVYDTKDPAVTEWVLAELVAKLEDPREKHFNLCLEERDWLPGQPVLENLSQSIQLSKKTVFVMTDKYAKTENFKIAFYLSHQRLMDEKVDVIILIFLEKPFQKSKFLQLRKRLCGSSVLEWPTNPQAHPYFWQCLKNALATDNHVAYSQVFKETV
# Procedure, shortened: as §1
IC50 [1] [nM],IC50 [2] [nM],IC50 [3] [nM],SMILES
1000 to 50000,< 100,< 100,"CC(C)c1c(-c2ccc(C#N)c3ncccc23)[nH]c2ccc(C3CCN(C(=O)CN(C)C)CC3)cc12 [Example 506, 5-(5-(1-(dimethylglycyl)piperidin-4-yl)-3-isopropyl-1H-indol-2-yl)quinoline-8-carbonitrile]"
1000 to 50000,< 100,< 100,"COCCN1CCC(c2ccc3[nH]c(-c4cc(OC)n5ncnc5c4)c(C(C)C)c3c2)CC1 [Example 780, 7-(3-isopropyl-5-(1-(2-methoxyethyl)piperidin-4-yl)-1H-indol-2-yl)-5-methoxy-[1,2,4]triazolo[1,5-a]pyridine]"
1000 to 50000,100 to 1000,< 100,"Cc1nc2ccc(-c3[nH]c4ccc(C5CCNCC5)cc4c3C(C)C)cc2o1 [Example 6, 6-(3-isopropyl-5-(piperidin-4-yl)-1H-indol-2-yl)-2-methylbenzo[d]oxazole]"
1000 to 50000,1000 to 50000,< 100,"Cc1cc2cc(-c3[nH]c4ccc(C5CCNCC5)cc4c3C(C)C)ccn2n1 [Example 145, 5-(3-isopropyl-5-(piperidin-4-yl)-1H-indol-2-yl)-2-methylpyrazolo[1,5-a]pyridine]"
1000 to 50000,< 100,< 100,"CC(C)c1c(-c2cn(C)c3ncccc23)[nH]c2ccc(C3CCN(Cc4cnn[nH]4)CC3)cc12 [Example 877, 3-(5-(1-((1H-1,2,3-triazol-5-yl)methyl)piperidin-4-yl)-3-isopropyl-1H-indol-2-yl)-1-methyl-1H-pyrrolo[2,3-b]pyridine]"
1000 to 50000,1000 to 50000,1000 to 50000,"CC(C)c1c(-c2ccc3[nH]ccc3c2)[nH]c2ccc(C3CCNCC3)cc12 [Example 66, 3-isopropyl-5-(piperidin-4-yl)-1H,1′H-2,5′-biindole]"
1000 to 50000,100 to 1000,100 to 1000,"Cc1cc(-c2[nH]c3ccc(C4CCN(C5COC5)CC4)cc3c2C(C)C)cc2nccn12 [Example 711, 7-(3-isopropyl-5-(1-(oxetan-3-yl)piperidin-4-yl)-1H-indol-2-yl)-5-methylimidazo[1,2-a]pyridine]"
1000 to 50000,< 100,100 to 1000,"CCc1c(-c2ccnc3[nH]ncc23)[nH]c2ccc(C3CCN(Cc4c(C)noc4C)CC3)cc12 [Example 893, 4-((4-(3-ethyl-2-(1H-pyrazolo[3,4-b]pyridin-4-yl)-1H-indol-5-yl)piperidin-1-yl)methyl)-3,5-dimethylisoxazole]"
100 to 1000,100 to 1000,< 100,"COc1cc(-c2[nH]c3ccc(C4CCNCC4)cc3c2C(C)C)cc2nc(C)cn12 [Example 162, 7-(3-isopropyl-5-(piperidin-4-yl)-1H-indol-2-yl)-5-methoxy-2-methylimidazo[1,2-a]pyridine]"
1000 to 50000,< 100,< 100,"CC(C)c1c(-c2cn(C)c3ncccc23)[nH]c2ccc(C3CCN(CC(N)=O)CC3)cc12 [Example 296, 2-(4-(3-isopropyl-2-(1-methyl-1H-pyrrolo [2,3-b]pyridin-3-yl)-1H-indol-5-yl)piperidin-1-yl)acetamide]"
100 to 1000,< 100,< 100,"COCCNC(=O)c1cn2cc(-c3[nH]c4ccc(C5CCNCC5)cc4c3C(C)C)cc(C)c2n1 [Example 269, 6-(3-isopropyl-5-(piperidin-4-yl)-1H-indol-2-yl)-N-(2-methoxyethyl)-8-methylimidazo[1,2-a]pyridine-2-carboxamide]"
1000 to 50000,> 3130,> 50000,"CNCCN1CCC(c2ccc3[nH]c(-c4cc5cc(OC)ccc5o4)c(C)c3c2)CC1 [Example 671, 2-(4-(2-(5-methoxybenzofuran-2-yl)-3-methyl-1H-indol-5-yl)piperidin-1-yl)-N-methylethan-1-amine]"
1000 to 50000,< 100,< 100,"CC(C)c1c(-c2ccc(C#N)c3ncccc23)[nH]c2ccc(C3CCN(CC(=O)N(C)C)CC3)cc12 [Example 370, 2-(4-(2-(8-cyanoquinolin-5-yl)-3-isopropyl-1H-indol-5-yl)piperidin-1-yl)-N,N-dimethylacetamide]"
100 to 1000,< 100,< 100,"Cc1nnn2ccc(-c3[nH]c4ccc(C5CCNCC5)cc4c3C(C)C)cc12 [Example 77, 5-(3-isopropyl-5-(piperidin-4-yl)-1H-indol-2-yl)-3-methyl-[1,2,3]triazolo[1,5-a]pyridine]"
100 to 1000,< 100,< 100,"CC(C)c1c(-c2cnc3ncnn3c2)[nH]c2ccc(C3CCNCC3)cc12 [Example 170, 6-(3-isopropyl-5-(piperidin-4-yl)-1H-indol-2-yl)-[1,2,4]triazolo[1,5-a]pyrimidine]"
